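Exposure lasted 48 hours, with cells grown in 96-well plates and compounds tested at five concentrations. TGI: total growth inhibition.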
System: P388/ADR leukemia
Assay: NCI tumour cell line growth inhibition, 48 h

`COc1cccc2c1[C@H]1CO[C@H]3C4C[C@H](C(=O)O)C([C@@H](C2)N13)N4C` (stereo partly specified) was tested. Which TGI did it give?
Its TGI is 652 nM.

From PubChem BioAssay (NCI)
